According to ChEMBL document CHEMBL5465560, “Selectivity Literature for EUbOPEN Chemogenomic Library” (2024):

Experiments:
[1] = target: Ephrin type-A receptor 7 (Homo sapiens) (UniProt Q15375); assay: Selectivity interaction (Kinase panel (DSF assay)) EUB0001558a EPHA7
[2] = target: CDK9/cyclin T1 (Homo sapiens) (UniProt O60563+P50750); assay: Selectivity interaction (Kinase panel (Invitrogen)) EUB0000639a CDK9; format: protein-complex assay; conditions: at 200 nM
[3] = target: Cyclin-dependent kinase 18 (Homo sapiens) (UniProt Q07002); assay: Selectivity interaction (ActivX KiNativ screen (kinase selectivity in THP-1 cell lysates)) EUB0000639a CDK18; format: subcellular; conditions: lysate
Chain of Cyclin-dependent kinase 18 (Homo sapiens) (Q07002 whole entry): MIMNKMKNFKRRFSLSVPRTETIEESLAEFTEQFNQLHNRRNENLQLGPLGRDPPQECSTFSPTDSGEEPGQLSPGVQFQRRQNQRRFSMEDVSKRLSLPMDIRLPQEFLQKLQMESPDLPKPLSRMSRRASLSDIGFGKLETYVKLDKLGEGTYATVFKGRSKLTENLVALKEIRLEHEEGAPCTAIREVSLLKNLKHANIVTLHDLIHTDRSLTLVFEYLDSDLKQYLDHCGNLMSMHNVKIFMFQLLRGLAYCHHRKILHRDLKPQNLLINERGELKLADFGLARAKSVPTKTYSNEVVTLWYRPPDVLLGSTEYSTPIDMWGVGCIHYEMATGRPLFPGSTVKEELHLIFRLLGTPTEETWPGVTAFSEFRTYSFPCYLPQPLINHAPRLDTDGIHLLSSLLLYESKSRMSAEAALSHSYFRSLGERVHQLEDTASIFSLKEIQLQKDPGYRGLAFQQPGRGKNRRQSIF

[4] = target: T1, Inhibitor of nuclear factor kappa-B kinase subunit beta (Homo sapiens) (UniProt O14920); assay: Selectivity interaction (ActivX KiNativ screen (kinase selectivity in THP-1 cell lysates)) EUB0000639a IKBKB; format: subcellular; conditions: lysate
T1 sequence (whole entry): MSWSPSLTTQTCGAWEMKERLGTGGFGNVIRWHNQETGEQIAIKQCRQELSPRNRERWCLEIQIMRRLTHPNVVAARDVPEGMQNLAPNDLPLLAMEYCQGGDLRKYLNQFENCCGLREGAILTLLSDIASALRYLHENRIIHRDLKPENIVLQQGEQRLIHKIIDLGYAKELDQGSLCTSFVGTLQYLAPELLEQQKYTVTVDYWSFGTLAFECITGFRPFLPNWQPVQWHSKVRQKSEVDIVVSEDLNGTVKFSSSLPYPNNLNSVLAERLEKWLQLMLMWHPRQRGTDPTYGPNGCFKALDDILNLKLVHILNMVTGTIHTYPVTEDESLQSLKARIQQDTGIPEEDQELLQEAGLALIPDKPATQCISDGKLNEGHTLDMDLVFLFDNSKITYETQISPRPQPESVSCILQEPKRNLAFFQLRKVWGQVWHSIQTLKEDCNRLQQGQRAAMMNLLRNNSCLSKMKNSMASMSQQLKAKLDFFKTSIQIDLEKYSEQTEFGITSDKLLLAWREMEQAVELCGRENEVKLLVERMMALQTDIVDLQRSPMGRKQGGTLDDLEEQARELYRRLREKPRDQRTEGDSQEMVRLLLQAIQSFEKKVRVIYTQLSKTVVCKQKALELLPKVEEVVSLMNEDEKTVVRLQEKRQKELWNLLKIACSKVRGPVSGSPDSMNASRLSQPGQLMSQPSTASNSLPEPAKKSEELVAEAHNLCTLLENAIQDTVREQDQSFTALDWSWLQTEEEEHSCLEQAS

[5] = target: Serine/threonine-protein kinase N2 (Homo sapiens, UniProt Q16513); conditions: at 10 µM
Chain of Serine/threonine-protein kinase N2 (Q16513 whole entry, looked up): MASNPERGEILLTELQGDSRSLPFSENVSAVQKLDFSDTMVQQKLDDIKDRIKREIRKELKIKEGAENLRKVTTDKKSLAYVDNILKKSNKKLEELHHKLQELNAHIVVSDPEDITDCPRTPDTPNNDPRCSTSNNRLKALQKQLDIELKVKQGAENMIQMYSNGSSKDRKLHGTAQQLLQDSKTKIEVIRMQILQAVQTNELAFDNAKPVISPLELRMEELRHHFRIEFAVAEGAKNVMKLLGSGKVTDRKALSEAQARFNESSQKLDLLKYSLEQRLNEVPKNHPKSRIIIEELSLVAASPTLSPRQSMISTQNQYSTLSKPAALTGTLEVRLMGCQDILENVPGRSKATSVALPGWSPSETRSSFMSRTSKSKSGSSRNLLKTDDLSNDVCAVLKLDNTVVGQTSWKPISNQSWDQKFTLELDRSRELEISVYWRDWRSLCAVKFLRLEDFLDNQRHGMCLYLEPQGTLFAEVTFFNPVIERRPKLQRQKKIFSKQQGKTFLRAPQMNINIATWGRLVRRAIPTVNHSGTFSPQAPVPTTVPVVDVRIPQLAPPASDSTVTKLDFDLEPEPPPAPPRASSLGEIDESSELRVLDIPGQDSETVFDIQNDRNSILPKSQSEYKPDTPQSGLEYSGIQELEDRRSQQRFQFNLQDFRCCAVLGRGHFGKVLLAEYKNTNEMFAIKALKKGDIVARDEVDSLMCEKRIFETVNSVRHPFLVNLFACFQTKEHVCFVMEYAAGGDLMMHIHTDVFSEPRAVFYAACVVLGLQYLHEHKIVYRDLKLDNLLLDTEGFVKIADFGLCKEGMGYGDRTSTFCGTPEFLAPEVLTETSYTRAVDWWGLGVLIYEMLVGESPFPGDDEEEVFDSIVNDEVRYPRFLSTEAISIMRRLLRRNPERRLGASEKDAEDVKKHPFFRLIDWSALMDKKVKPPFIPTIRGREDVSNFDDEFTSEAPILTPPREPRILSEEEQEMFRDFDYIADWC

[6] = target: Mitogen-activated protein kinase 9 (Homo sapiens, UniProt P45984); assay: Selectivity interaction (Kinase screening (Upstate/Millipore)) EUB0000604a MAPK9
Chain of Mitogen-activated protein kinase 9 (P45984 whole entry, looked up): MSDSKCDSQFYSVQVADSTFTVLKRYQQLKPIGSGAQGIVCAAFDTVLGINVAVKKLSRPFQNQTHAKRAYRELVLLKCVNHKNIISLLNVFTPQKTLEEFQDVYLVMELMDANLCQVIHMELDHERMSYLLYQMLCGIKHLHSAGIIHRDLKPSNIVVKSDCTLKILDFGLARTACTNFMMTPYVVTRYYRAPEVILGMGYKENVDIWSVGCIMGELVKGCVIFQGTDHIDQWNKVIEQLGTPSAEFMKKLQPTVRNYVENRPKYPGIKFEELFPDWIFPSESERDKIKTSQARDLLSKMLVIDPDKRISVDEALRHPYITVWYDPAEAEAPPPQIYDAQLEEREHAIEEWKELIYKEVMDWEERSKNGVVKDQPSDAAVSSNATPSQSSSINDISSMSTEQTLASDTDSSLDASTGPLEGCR

[7] = target: Maternal embryonic leucine zipper kinase (Homo sapiens) (UniProt Q14680); assay: Selectivity interaction (KinomeScan (DiscoverX)) EUB0001619a MELK; conditions: at 1 µM
Chain of Maternal embryonic leucine zipper kinase (Homo sapiens) (Q14680 whole entry, looked up): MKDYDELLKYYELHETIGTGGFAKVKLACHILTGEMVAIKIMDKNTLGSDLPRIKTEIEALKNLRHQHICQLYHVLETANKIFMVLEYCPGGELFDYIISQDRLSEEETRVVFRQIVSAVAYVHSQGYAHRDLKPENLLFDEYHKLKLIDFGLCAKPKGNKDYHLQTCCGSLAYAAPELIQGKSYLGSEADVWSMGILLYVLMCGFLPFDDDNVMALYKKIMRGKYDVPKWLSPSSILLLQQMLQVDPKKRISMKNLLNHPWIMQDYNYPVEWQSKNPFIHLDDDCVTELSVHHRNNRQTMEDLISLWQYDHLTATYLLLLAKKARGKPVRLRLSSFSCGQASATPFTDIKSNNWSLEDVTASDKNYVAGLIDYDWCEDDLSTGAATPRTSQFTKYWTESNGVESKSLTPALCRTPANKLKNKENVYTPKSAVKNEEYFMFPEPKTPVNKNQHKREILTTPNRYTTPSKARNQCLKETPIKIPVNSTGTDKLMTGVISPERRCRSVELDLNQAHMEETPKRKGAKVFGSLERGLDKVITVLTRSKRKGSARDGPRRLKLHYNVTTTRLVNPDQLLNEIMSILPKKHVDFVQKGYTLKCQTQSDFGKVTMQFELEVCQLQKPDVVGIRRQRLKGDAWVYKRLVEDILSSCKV

[8] = target: Tyrosine-protein kinase Fer (Homo sapiens) (UniProt P16591); assay: Selectivity interaction (KinomeScan (DiscoverX)) EUB0000695a FER; conditions: at 100 nM
Chain of Tyrosine-protein kinase Fer (Homo sapiens) (P16591 whole entry, looked up): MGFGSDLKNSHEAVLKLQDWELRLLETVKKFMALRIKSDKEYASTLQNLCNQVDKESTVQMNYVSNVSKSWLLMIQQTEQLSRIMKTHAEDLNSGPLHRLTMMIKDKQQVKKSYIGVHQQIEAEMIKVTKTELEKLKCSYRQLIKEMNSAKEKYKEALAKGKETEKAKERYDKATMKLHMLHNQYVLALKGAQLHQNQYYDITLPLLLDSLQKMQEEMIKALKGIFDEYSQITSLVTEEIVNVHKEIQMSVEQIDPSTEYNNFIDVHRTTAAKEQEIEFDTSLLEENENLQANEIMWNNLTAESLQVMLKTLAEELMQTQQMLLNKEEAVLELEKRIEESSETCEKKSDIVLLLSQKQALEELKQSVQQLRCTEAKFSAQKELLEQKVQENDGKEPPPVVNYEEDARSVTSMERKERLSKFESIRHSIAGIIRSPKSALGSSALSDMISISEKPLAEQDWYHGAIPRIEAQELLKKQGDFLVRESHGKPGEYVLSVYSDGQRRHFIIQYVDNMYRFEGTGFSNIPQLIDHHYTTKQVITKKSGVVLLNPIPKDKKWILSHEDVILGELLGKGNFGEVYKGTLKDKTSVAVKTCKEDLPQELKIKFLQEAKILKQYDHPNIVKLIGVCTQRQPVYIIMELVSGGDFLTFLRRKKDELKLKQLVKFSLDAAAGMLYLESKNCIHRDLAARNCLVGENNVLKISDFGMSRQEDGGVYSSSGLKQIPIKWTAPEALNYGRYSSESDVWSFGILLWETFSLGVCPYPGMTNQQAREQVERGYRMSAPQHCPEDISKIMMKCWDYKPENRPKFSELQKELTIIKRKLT

[9] = target: T2, Cyclin-G-associated kinase (Homo sapiens) (UniProt O14976); assay: Selectivity interaction (LanthaScreen Eu Kinase Binding Assay) EUB0001632a GAK; conditions: at 10 µM
T2 sequence (whole entry): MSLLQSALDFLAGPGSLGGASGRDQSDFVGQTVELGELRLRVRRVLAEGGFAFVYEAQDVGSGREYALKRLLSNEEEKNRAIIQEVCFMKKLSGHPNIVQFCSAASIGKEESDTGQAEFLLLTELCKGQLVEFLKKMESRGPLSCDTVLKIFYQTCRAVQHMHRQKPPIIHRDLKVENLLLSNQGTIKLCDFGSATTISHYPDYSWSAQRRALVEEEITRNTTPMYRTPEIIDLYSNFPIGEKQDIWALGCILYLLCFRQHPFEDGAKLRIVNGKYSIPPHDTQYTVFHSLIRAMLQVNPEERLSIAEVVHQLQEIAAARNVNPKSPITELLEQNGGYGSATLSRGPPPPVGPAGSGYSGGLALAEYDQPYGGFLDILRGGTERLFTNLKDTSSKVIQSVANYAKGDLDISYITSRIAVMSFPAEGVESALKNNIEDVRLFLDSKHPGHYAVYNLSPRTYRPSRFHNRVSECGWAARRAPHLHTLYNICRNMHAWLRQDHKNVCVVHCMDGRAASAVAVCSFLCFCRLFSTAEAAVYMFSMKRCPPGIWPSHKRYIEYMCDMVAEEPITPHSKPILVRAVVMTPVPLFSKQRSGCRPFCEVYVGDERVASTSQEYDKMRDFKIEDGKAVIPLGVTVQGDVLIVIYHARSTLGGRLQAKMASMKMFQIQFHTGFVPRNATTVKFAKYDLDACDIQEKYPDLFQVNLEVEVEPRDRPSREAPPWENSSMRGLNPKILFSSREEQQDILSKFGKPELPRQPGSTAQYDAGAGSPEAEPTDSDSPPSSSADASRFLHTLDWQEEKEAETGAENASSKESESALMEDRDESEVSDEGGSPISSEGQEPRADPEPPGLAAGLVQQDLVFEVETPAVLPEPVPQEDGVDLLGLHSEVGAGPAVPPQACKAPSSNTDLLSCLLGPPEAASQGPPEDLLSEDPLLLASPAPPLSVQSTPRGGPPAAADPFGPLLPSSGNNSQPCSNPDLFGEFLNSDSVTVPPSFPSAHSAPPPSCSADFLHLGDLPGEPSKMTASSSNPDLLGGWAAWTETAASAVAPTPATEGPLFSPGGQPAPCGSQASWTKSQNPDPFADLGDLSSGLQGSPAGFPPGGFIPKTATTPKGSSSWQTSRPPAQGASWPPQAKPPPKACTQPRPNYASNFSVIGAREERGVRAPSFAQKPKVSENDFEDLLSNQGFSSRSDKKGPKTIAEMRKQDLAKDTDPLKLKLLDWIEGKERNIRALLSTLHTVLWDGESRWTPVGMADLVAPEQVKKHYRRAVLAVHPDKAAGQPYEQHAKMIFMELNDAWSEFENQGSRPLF

[10] = target: Serine/threonine-protein kinase SIK2 (Homo sapiens) (UniProt Q9H0K1); assay: Selectivity interaction (ProQinase) EUB0000171b SIK2
Chain of Serine/threonine-protein kinase SIK2 (Homo sapiens) (Q9H0K1 whole entry, looked up): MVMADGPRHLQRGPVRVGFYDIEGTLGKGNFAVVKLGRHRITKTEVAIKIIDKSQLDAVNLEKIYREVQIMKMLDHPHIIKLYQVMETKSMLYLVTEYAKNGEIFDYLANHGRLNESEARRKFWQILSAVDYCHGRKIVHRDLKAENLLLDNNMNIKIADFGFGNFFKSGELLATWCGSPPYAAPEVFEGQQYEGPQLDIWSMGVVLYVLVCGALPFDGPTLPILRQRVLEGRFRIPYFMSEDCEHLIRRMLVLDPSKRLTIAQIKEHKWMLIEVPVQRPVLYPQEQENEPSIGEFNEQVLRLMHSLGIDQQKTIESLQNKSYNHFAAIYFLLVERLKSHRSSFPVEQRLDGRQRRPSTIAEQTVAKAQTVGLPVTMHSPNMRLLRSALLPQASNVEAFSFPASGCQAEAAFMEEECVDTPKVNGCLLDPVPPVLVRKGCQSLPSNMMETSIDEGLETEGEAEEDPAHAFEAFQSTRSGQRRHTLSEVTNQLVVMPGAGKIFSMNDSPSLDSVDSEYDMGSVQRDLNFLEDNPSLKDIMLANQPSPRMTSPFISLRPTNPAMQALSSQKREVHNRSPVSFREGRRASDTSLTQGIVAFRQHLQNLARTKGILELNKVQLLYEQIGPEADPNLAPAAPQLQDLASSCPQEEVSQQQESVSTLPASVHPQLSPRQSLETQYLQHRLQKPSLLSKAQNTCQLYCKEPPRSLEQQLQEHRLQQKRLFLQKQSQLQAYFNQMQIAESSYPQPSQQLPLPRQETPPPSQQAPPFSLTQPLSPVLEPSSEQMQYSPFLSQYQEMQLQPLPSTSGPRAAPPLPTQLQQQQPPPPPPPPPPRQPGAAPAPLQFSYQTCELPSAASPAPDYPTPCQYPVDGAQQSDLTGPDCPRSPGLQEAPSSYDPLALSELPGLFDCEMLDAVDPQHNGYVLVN

## CC(C)(O)[C@H](F)CN1Cc2cc(NC(=O)c3cnn4cccnc34)c(N3CCOCC3)cc2C1=O
[1]
  dTM: -0.2 K

## CC[C@@H]1[C@H](F)C(=O)N[C@@H]1COc1nccc2cc(C(N)=O)c(OC)cc12 [ZIMLOVISERTIB]
[2]
  % of inhibition: 3.66%
[3]; at 0.01 µM
  % of inhibition: -0.6%
[3]; at 0.04 µM
  % of inhibition: 0.5%
[3]; at 0.2 µM
  % of inhibition: -0.8%
[3]; at 1 µM
  % of inhibition: 7.7%
[3]; at 5 µM
  % of inhibition: 41.7%
[4]; at 0.01 µM
  % of inhibition: -9.1%
[4]; at 0.04 µM
  % of inhibition: 4.5%
[4]; at 0.2 µM
  % of inhibition: -13.8%
[4]; at 1 µM
  % of inhibition: 4.1%
[4]; at 5 µM
  % of inhibition: -6.8%

## COCC(=O)NC/C=C/c1ccc2ncnc(Nc3ccc(Oc4ccc(C)nc4)c(C)c3)c2c1 [CP-724714]
[5]
  % of control: 99%

## Cc1cnc(Nc2ccc(F)cc2Cl)nc1-c1c[nH]c(C(=O)N[C@H](CO)c2cccc(Cl)c2)c1
[6]
  % of inhibition: 43%

## N#Cc1cccc(-c2c[nH]c3ncnc(N4CCOCC4)c23)c1
[7]
  % of control: 69%

## Cc1cc(F)c(C(=O)Nc2cccc(-c3nncn3C(C)C)n2)cc1-n1cnc(C2CC2)c1
[8]
  % of control: 72%

## Cn1cc(-n2cnc3c(NCc4nc5cc(Cl)c(Cl)cc5[nH]4)nc(N4CCOCC4)nc32)cn1
[9]
  % of inhibition: -16.7%

## C=CC(=O)Nc1cccc(C(=O)Nc2ccc(Nc3cc(-c4[nH]c(SC)nc4C)ccn3)cc2)c1
[10]; at 1 µM
  % of control: 108%
[10]; at 5 µM
  % of control: 90%
